Results: patent US20080255076A1, “Steroid-Derived Pharmaceutical Compositions” (JadoLabs GmbH, priority 2004, published 2008)

Key:
[1] = system: Raft liposomes; assay: Disrafter-Liposome Raftophile Assay (D-LRA); settings: for % disrafting in the DLRA with perylene: indicator perylene 2 μM; for % disrafting in the DLRA with perylene / % disrafting in the DLRA with GS-96: test compound 100 μM final, negative = raft augmentation; for disrafting activity in the DLRA (in words): significance above 25% or below −25%; for % disrafting in the DLRA with GS-96: indicator GS-96 0.2 μM; for % disrafting in the DLRA: indicator not stated
[2] = system: Wild type SV40 viruses; assay: SV40 infection assay; type: cell-based, Simian Virus 40; settings: HeLa cells
[3] = system: vesicular stomatitis virus (VSV); type: cell-based
[4] = system: HIV-1 strain NL4-3; assay: HIV assay; type: cell-based; settings: compared to solvent; for inhibition at 30 µM: Human immunodeficiency virus 1, NL43, HeLa TZM cells, read-out: inhibition of HIV infection; for inhibition of HIV infection: 30 μM, HeLa TZM cells
[5] = system: PR8 virus; assay: microbe, parasite or virus in culture; type: cell-based, influenza virus
[6] = system: Influenza virus; assay: Virus budding assay (influenza assay); type: cell-based; settings: MDCK cells; test compound 1 h; below 100% = inhibition
[7] = system: Rat basophilic leukemia (RBL-2H3) cells; assay: Degranulation assay (β-hexosaminidase release); type: cell-based; settings: 100 μM, compared to solvent vehicle
Protocol: The assay measures release of β-hexosaminidase as a marker of release of various preformed pharmacological agents in response to clustering of the high affinity IgE receptor (FcεRI) by means of multivalent antigen-IgE complexes. Rat basophilic leukemia (RBL-2H3) cells, a commonly used model of mast cell degranulation, are sensitized with anti-DNP specific IgE and challenged with multivalent DNP-BSA. The release of β-hexosaminidase into the supernatant is measured by enzymatic conversion of the fluorogenic substrate 4-methylumbelliferyl-N-acetyl-[…] to N-acetyl-β-D-glucosamine and highly fluorescent methylumbelliferone and quantified by fluorescence detection in a Tecan Safire™ plate reader. • 2. Materials […]
Two to 24 hours before incubation with test compounds the medium was removed and cells were sensitized with 0.4 μg/ml anti-DNP IgE in fresh medium. […] Hexosaminidase activity in supernatants and lysates was measured by incubating 25 μl aliquots with 100 μl MUG substrate solution in a 96-well plate at 37° C. for 30 min. […] Fluorescence was measured in a Tecan Safire™ plate reader at 365 nm excitation and 440 nm emission settings.
Each compound is tested in duplicates in at least three independent experiments. β-hexosaminidase release is calculated after subtraction of unspecific release (release without addition of antigen) using the formula: […]

[8] = Betapolyomavirus macacae, M-HeLa, 30 μM, compared to solvent
[9] = unidentified influenza virus, PR8, MDCK, read-out: inhibition of PR8 virus replication

Molecule	% disrafting in the DLRA with perylene [1]	disrafting activity in the DLRA (in words) [1]	inhibitory effect on viral infection in the VSV counterscreen (in words) [3]	% disrafting in the DLRA with GS-96 [1]	other results
CO[C@@H]1CC[C@@]2(C)[C@@H](CC[C@H]3[C@@H]4CCC[C@@]4(C)CC[C@@H]32)C1 [Compound 10ac, 3alpha-Methoxy-5alpha-androstane]	about +68%	high negative or positive values	no inhibitory effect on viral infection at all	–	inhibition at 30 µM [2, 8]: 12.9%
C/C=C1/CCC2C3CCc4cc(OC)ccc4C3CC[C@]12C (stereo partly drawn) [Compound 10dc, cis-Δ^17(20)-19-Norpregna-1,3,5(10),17(20)-tetraen-3-yl methyl ether]	−139%	high negative or positive values	–	–	inhibition at 30 µM [4]: 38%
CCCCCCCCCCCC=C1CC[C@H]2[C@@H]3CCC4CC(=O)CC[C@]4(C)[C@H]3CC[C@]12C (relative stereo) [Compound 10ak, cis-Δ^17(20)-Dodecylidene-3-androstanone]	–	high negative or positive values	–	–	inhibition of HIV infection [4]: 23%
CC[C@H]1CC[C@H]2[C@@H]3CC[C@H]4C[C@@H](O)CC[C@]4(C)[C@H]3CC[C@]12C [Compound 10af, 5alpha-Pregnan-3beta-ol]	−217%	high negative or positive values	no inhibitory effect on viral infection at all	−74.7%	inhibition at 50 µM [5, 9]: 27.9%; inhibition at 30 µM [2, 8]: 18.9%
CC(C)CCC[C@@H](C)[C@H]1CC[C@H]2[C@@H]3CC=C4C[C@@H](O)CC[C@]4(C)[C@H]3CC[C@]12C [cholesterol, reference compound]	–	do not show significant disrafting activity	–	–	% disrafting in the DLRA [1]: 0%
C/C=C1/CCC2C3CCC4C[C@@H](O)CC[C@]4(C)C3CC[C@]12C (stereo partly drawn) [Compound 10ad, cis-Δ^17(20)-5alpha-Pregnen-3beta-ol]	about −105%	high negative or positive values	no inhibitory effect on viral infection at all	about −66%	virus budding, percentage with respect to an untreated control [6]: 61%; inhibition at 20 µM [5, 9]: 59.6%; inhibition at 30 µM [2, 8]: 15.2%
C/C=C1/CCC2C3CCc4cc(O)ccc4C3CC[C@]12C (stereo partly drawn) [Compound 10da, cis-Δ^17(20)-19-Norpregna-1,3,5(10),17(20)-tetraen-3-ol]	−729%	high negative or positive values	no inhibitory effect on viral infection at all	–	inhibition at 15 µM ([2]; Betapolyomavirus macacae, M-HeLa, 15 μM): 29.6%; inhibition at 30 µM [4]: 18%
C/C=C1/CCC2C3CCC4CC(=O)CC[C@]4(C)C3CC[C@]12C (stereo partly drawn) [Compound 10ae, cis-Δ^17(20)-5alpha-Pregnen-3-one]	about −43%	high negative or positive values	–	~−20%	virus budding, percentage with respect to an untreated control [6]: about 140%; inhibition at 50 µM [5, 9]: 32.9%
CC[C@H]1CCC2C3CCC4C[C@H](N=[N+]=[N-])CC[C@]4(C)C3CC[C@@]21C (stereo partly drawn) [Compound 10ag, 5alpha-Pregnan-3alpha-azide]	−71.8%	high negative or positive values	–	−187%	–
C/C=C1/CC[C@H]2[C@@H]3CCc4cc(OC(C)=O)ccc4[C@H]3CC[C@]12C (relative stereo) [Compound 10db, cis-Δ^17(20)-19-Norpregna-1,3,5(10),17(20)-tetraen-3-yl acetate]	−536%	high negative or positive values	no inhibitory effect on viral infection at all	–	inhibition of SV40 infection ([2]; 30 μM, compared to solvent): 52.2%; inhibition of HIV infection [4]: 27%
C[C@]12CC[C@@H](O)C[C@@H]1CC[C@@H]1[C@@H]2CC[C@]2(C)C(=O)CC[C@@H]12 [Androsterone, reference compound]	–	do not show significant disrafting activity	–	–	% disrafting in the DLRA [1]: 0%
cis-Δ^17(20)-Dodecylidene-3alpha-aminoandrostan [Compound 10al]	−216%	high negative or positive values	–	–	inhibition of PR8 virus replication ([5]; 12.5 μM, MDCK cells): 54%; inhibition of release of β-hexosaminidase [7]: 61%
C[C@]12CC[C@H](O)C[C@@H]1CC[C@@H]1[C@@H]2CC[C@]2(C)C(=O)CC[C@@H]12 [epiandrosterone, reference compound]	–	do not show significant disrafting activity	–	–	% disrafting in the DLRA [1]: 0%
